Measurements: the supplement of paper PMC10011410
± gives the standard deviation of the averaged measurements.

What was measured:
U-2 OS [1] = assay: intracellular GSH:GSSG ratio (calculated); higher = more reduced glutathione pool; details: 24 h
Procedure: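 Intracellular glutathione in U-2 OS cells after 24 h compound treatment at 5, 10 and 20 uM (some at 40 and 80 uM). Total glutathione and GSSG were measured with the GSH/GSSG-Glo kit, and the GSH:GSSG ratio was calculated. Mean of five technical replicate plates.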

U-2 OS [2] = assay: cell viability (CellTiter-Glo) relative to DMSO (% of control); higher = more viable; details: 24 h
Procedure: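 Cell viability of U-2 OS cells by CellTiter-Glo after 24 h compound treatment at 5, 10 and 20 uM (some at 40 and 80 uM), measured in parallel with the glutathione assay, as percent of DMSO control. Five technical replicate plates, averaged.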

U-2 OS [3] = assay: total intracellular glutathione (GSH + GSSG) relative to DMSO (% of control); higher = more glutathione; details: 24 h
Procedure: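 Total intracellular glutathione (GSH + GSSG) in U-2 OS cells by GSH/GSSG-Glo after 24 h compound treatment at 5, 10 and 20 uM (some at 40 and 80 uM), as percent of DMSO control. Five technical replicate plates, averaged.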

U-2 OS [4] = assay: cell painting activity score (Mahalanobis distance from DMSO wells); higher = stronger morphological phenotype; details: 24 h
Summary of the method: (§1)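 U-2 OS cells were seeded at about 1,500 per well in 384-well plates and treated by pin tool for 24 h at 37 °C, usually at six 2-fold concentrations from 20 μM to 625 nM. After staining with MitoTracker, concanavalin A, phalloidin, wheat germ agglutinin, Hoechst and SYTO 14, plates were imaged on an Opera Phenix and features were extracted with CellProfiler and normalized to DMSO cells on the same plate. The activity score is the Mahalanobis distance from DMSO wells, and cell count is given relative to DMSO wells. Each value is the mean of four replicate plates.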

U-2 OS [5] = assay: relative cell count vs DMSO (cell painting) (fraction of DMSO control); higher = more cells remaining (less cytotoxic); details: 24 h
Summary of the method: as §1

U-2 OS [6] = assay: AUC of culture confluence over time (live-cell imaging) (AUC (confluence % x time)); higher = more confluent culture (less growth inhibition)
Summary of the method: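 Live-cell imaging tracked confluence of U-2 OS cells grown in F-12K medium plus 10% FBS. After seeding at 750 cells per well in 384-well plates, cells received compounds by pin tool 24 h later, mostly at 20, 10 and 5 μM, with 0.2% DMSO. Plates stayed at 37 °C and were imaged every 4 h for up to 60 h. Each value is the area under the confluence-versus-time curve.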

Row | Compound | intracellular GSH:GSSG ratio (U-2 OS [1]; 5 µM) | intracellular GSH:GSSG ratio (U-2 OS [1]; 10 µM) | intracellular GSH:GSSG ratio (U-2 OS [1]; 20 µM) | cell viability (U-2 OS [2]; 5 µM) | cell viability (U-2 OS [2]; 10 µM) | cell viability (U-2 OS [2]; 20 µM) | total intracellular glutathione (U-2 OS [3]; 5 µM) | total intracellular glutathione (U-2 OS [3]; 10 µM) | total intracellular glutathione (U-2 OS [3]; 20 µM) | cell painting activity score (U-2 OS [4]; 0.625 µM) | cell painting activity score (U-2 OS [4]; 1.25 µM) | cell painting activity score (U-2 OS [4]; 2.5 µM) | cell painting activity score (U-2 OS [4]; 5 µM) | cell painting activity score (U-2 OS [4]; 10 µM) | cell painting activity score (U-2 OS [4]; 20 µM) | relative cell count (U-2 OS [5]; 0.625 µM) | relative cell count (U-2 OS [5]; 1.25 µM) | relative cell count (U-2 OS [5]; 2.5 µM) | relative cell count (U-2 OS [5]; 5 µM) | relative cell count (U-2 OS [5]; 10 µM) | relative cell count (U-2 OS [5]; 20 µM) | intracellular GSH:GSSG ratio (U-2 OS [1]; 40 µM) | intracellular GSH:GSSG ratio (U-2 OS [1]; 80 µM) | cell viability (U-2 OS [2]; 40 µM) | cell viability (U-2 OS [2]; 80 µM) | total intracellular glutathione (U-2 OS [3]; 40 µM) | total intracellular glutathione (U-2 OS [3]; 80 µM) | cell painting activity score (U-2 OS [4]; 40 µM) | cell painting activity score (U-2 OS [4]; 80 µM) | relative cell count (U-2 OS [5]; 40 µM) | relative cell count (U-2 OS [5]; 80 µM) | AUC of culture confluence over time (U-2 OS [6]; 5 µM) | AUC of culture confluence over time (U-2 OS [6]; 10 µM) | AUC of culture confluence over time (U-2 OS [6]; 20 µM) | AUC of culture confluence over time (U-2 OS [6]; 40 µM) | AUC of culture confluence over time (U-2 OS [6]; 80 µM)
1 | S=C(Nc1ccccc1)Nc1nc(-c2ccccc2)[n+](-c2ccccc2)s1 | 27.8 | 18.7 | 29 | 91.8 ± 2.3 | 106 ± 3.2 | 97.5 ± 6.9 | 116 ± 14 | 96.7 ± 11 | 130 ± 9.9 | 3.57 | 4.45 | 5.25 | 3.52 | 6.94 | 3.81 | 0.907 | 0.951 | 0.994 | 0.926 | 0.955 | 0.94 |  |  |  |  |  |  |  |  |  |  |  |  |  |  | 
2 | COc1cc(/C=C/C(=O)CC(=O)/C=C/c2ccc(O)c(OC)c2)ccc1O | 16.9 | 10.3 | 6.3 | 101 ± 7.1 | 90 ± 6.6 | 70.2 ± 3.2 | 112 ± 20 | 116 ± 3.4 | 100 ± 5.8 | 3.83 | 3.58 | 4.65 | 6.94 | 9.69 | 10.7 | 0.919 | 0.894 | 0.876 | 0.892 | 0.772 | 0.482 | 4.46 | 0.7 | 40.9 ± 2.8 | 36.2 ± 3.8 | 44.2 ± 2.1 | 41.5 ± 3.5 |  |  |  |  |  |  |  |  | 
3 | COC(=O)c1ccc([C@H]2c3[nH]c4ccccc4c3C[C@H](C(=O)OC)N2C(=O)CCl)cc1 | 3.83 | 3.98 | 1.09 | 69.6 ± 4.1 | 49.1 ± 4.9 | 6.2 ± 1.6 | 93.1 ± 5.2 | 75.3 ± 6.4 | 10.7 ± 1.2 | 10.3 | 10.7 | 11.1 | 10.8 | 10 | 17.9 | 0.876 | 0.867 | 0.818 | 0.68 | 0.524 | 0.186 |  |  |  |  |  |  |  |  |  |  |  |  |  |  | 
4 | CC1=CC(=O)c2ccccc2C1=O | 17.1 | 2.21 | 1.63 | 40 ± 5.8 | 1.01 ± 0.2 | 1.22 ± 0.21 | 36.9 ± 4.5 | 4.53 ± 0.61 | 3.31 ± 0.24 | 4.82 | 3.53 | 4.48 | 6.92 | 10.5 | 17.1 | 0.971 | 0.921 | 0.979 | 0.89 | 0.643 | 0.277 | 0.957 | 2.69 | 1.15 ± 0.15 | 0.692 ± 0.12 | 2.94 ± 0.44 | 2.93 ± 0.45 |  |  |  |  |  |  |  |  | 
5 | CC(Cc1ccc(O)c(O)c1)C(C)Cc1ccc(O)c(O)c1 (centres undefined) | 24 | 47.5 | 22.3 | 101 ± 4 | 104 ± 8.2 | 100 ± 5.4 |  |  |  | 4.39 | 8.68 | 11.8 | 13.1 | 15.4 | 12.1 | 0.839 | 0.852 | 0.896 | 0.816 | 0.835 | 0.359 | 22.5 |  | 87.1 ± 6.5 | 0.624 ± 0.073 |  |  | 17.4 | 22.6 | 0.261 | 0.228 | 42.1 | 39.8 | 43.8 | 28.7 | 19.1
6 | O=C1C(Cl)=C(NCCN2CCOCC2)C(=O)c2ncccc21 |  |  |  | 0.868 ± 0.067 | 0.657 ± 0.091 | 0.819 ± 0.053 | 1.89 ± 0.18 | 2.12 ± 0.18 | 1.91 ± 0.3 | 5.61 | 10.4 | 14.7 | 21.2 | 26.9 | 26.9 | 0.808 | 0.755 | 0.474 | 0.317 | 0.049 | 0.0399 |  |  |  |  |  |  |  |  |  |  | 16.5 | 14.9 | 12 |  | 
7 | CC1=C(CO)C(=O)O[C@H](C(C)[C@H]2CC[C@@H]3[C@H]4C[C@H]5O[C@@]56[C@@H](O)C=CC(=O)[C@@]6(C)C4CC[C@@]23C)C1 (some centres undefined) | 1.55 | 4.28 | 0.143 | 55.7 ± 8.4 | 42.7 ± 2 | 59.4 ± 12 | 43.6 ± 5.1 | 39.2 ± 4.1 | 32.8 ± 3.3 | 10.3 | 16.1 | 17.1 | 17.6 | 29 | 20.3 | 0.988 | 0.352 | 0.402 | 0.38 | 0.146 | 0.0181 |  |  |  |  |  |  |  |  |  |  |  |  |  |  | 
8 | CCOc1ccccc1-n1c(C(C)N2CCN(C(=O)COc3ccc(Cl)cc3)CC2)nc2ccccc2c1=O (centres undefined) |  |  |  | 102 ± 3.5 | 95.2 ± 4.2 | 40.6 ± 14 | 10.4 ± 0.54 | 2.5 ± 0.32 | 1.15 ± 0.16 | 6.32 | 5.84 | 6.59 | 9.13 | 10.4 | 14.2 | 0.983 | 0.945 | 0.996 | 0.969 | 0.922 | 0.508 |  |  |  |  |  |  |  |  |  |  | 45 | 40 | 39.9 |  | 
